Series [1] concerns histamine-induced wheal response. As to the kind of experiment: Antihistaminic activity in vivo, intradermal histamine wheal. The following applies: rat; for Histamine wheal area: 60 min before histamine; for Saline wheal area: histamine vehicle injection; for Histamine effect: histamine minus saline. The arrangement: species or system rats. As to the method: Male rats (150-200 g) were fasted overnight and twelve hours after dorsal depilation, the animals were orally pretreated with the test compound(s). Four dorsal test areas were marked with permanent ink, carefully avoiding the area closest to the spine. […] Two intradermal injections of the vehicle for the histamine solution were also performed. […] Twenty minutes were allowed for the wheal response to fully develop, whereupon the animals were euthanized and the dorsal skin with the intradermal wheals were deflected. The blue spotted areas were measured in square millimeters and the duplicate wheal areas were averaged. […] The inhibition was calculated in percent difference from said baseline values.

The next series has as its system rats. Kind of series: Acute toxicity, Up-and-Down Procedure. The class given is in vivo. As to conditions: RAT, hydrogen fumarate salts. The procedure:
Acute toxicological studies were performed in rats (Sprague-Dawley; M and F; 200-250 grams). The animal-sparing Up-and-Down Procedure (FDA, OECD) was used. Both oral and intravenous toxicity tests were performed.
Both compounds were administered as hydrogen fumarate salts.

The next series concerns Malassezia pachydermatis. Kind of series: Antimicrobial test, Malassezia study. The class given is cell-based. As to conditions: after 24 hours. The procedure: The test article (norketotifen) was weighed and diluted into PBS to final concentrations of 0.210% and 0.035% before use. A 5 mL volume of the Test Article was aliquoted to a sterile 15 mL tube and the Malassezia sp (for example M. pachydermatis) were added at target concentrations of approx. 1.0×10^6 CFU/mL. The resulting mixture was vortexed thoroughly and incubated at room temperature for 7 days. A 0.500 mL aliquot of control and test tubes were harvested in 9.5 mL of D/E broth and any surviving test microorganisms were enumerated per standard dilution and plating techniques. Reductions were compared to a PBS Control at Time Zero and replicate tests were performed.

Consider `O=C1Cc2ccccc2C(=C2CCNCC2)c2ccsc21` (racemic) [Norketotifen, (RS)-4-(piperidylidene)-9,10-dihydro-4H-benzo-(4,5)-cyclohepta-(1,2-b) thiophene-10-one], for which the Histamine wheal area came to 114 ± 8 mm^2 in series [1] (oral 1.0 mg/kg), 39 ± 2 mm^2 in series [1] (oral 10 mg/kg) and 10 ± 1 mm^2 in series [1] (oral 50 mg/kg). The Saline wheal area in series [1] (oral 1.0 mg/kg) came to 22 ± 1 mm^2; in series [1] (oral 10 mg/kg), 22 ± 1 mm^2; in series [1] (oral 50 mg/kg), 12 ± 1 mm^2. Also, the Histamine effect in series [1] (oral 1.0 mg/kg) is given as 92 mm^2; in series [1] (oral 10 mg/kg), 17 mm^2; in series [1] (oral 50 mg/kg), 0 mm^2. For the same molecule, in series [1] (oral 1.0 mg/kg, versus vehicle baseline), 1 mg/kg produced 2% inhibition. In series [1] (oral 10 mg/kg, versus vehicle baseline), this molecule yielded an inhibition at 10 mg/kg of 82%. The molecule further came in with an inhibition at 50 mg/kg in series [1] (oral 50 mg/kg, versus vehicle baseline) of 100%. Besides, the “Acute toxicity (estimated LD50)” value in the series with rats (intravenous) was 10 to 15 mg/kg; in the series with rats (oral), 1500 to 2000 mg/kg. Moreover, the results for the “Reduction of Malassezia pachydermatis” value in the series with Malassezia pachydermatis (0.035% norketotifen) and in the series on Malassezia pachydermatis (0.2% norketotifen) were 99.8% and 99.995%, respectively.

The values above are taken from patent US8778971B2, “Medicinal treatment of dermal diseases in companion animals” (Bridge Pharma, Inc., priority 2012, dated 2014).
